The values below come from patent US10334845B2, “Olfactory ligands” (University College Cardiff Consultants Limited, priority 2015, dated 2019).

“And” between values parts separate entries of the source, which are not always exact repeats. Identical values can stand only once.

Experiment [1] deals with grain aphids, Sitobion avenae. The experiment is described as follows: Behavioural assay, four-arm olfactometer. In kind it is in vivo. As to conditions: for Time spent in control arms (mean of 3) / Time spent in treatment arm: mean (SE), 16 min, 10 replicates; for Insect repellent / attractant activity (in words): summary statement. As for the experimental part: The responses of individual grain aphids, Sitobion avenae, to test compounds were observed using a Perspex four-arm olfactometer (Pettersson, J.; Ent. Scand. 1, 63-73 (1970); Webster, B., et al. Animal Behav. 79, 451-457 (2010)), which was maintained at 23° C. and lit from above. A filter paper disc was laid in the bottom section of the olfactometer to provide traction for the aphid and the middle and top sections were fitted into place very tightly to give a good seal. The four arms, consisting of the barrels of disposable 10 mL syringes (Plastipak), were fitted tightly into the holes of the middle section, and filtered air was drawn through them and into the body of the olfactometer through a tube inserted into a hole in the centre of the top section and attached to a pump. The measured total flow rate was 200 mL/min and it was assumed that the flow rate through each arm was 50 mL/min. The three control arms each contained a filter paper strip to which had been applied 10 µL hexane which had been allowed to evaporate for 30 s. The treatment arm contained a filter paper strip to which the test compound in 10 μL of hexane (20-200 ng μL^−1) had been applied and left for 30 s for the hexane to evaporate. A single aphid was introduced through the central hole and the suction tube quickly reinserted. The time spent in each arm and in the central zone were recorded, using specialist software (OLFA, Udine, Italy), for the next 16 minutes. The olfactometer was rotated through 90° every 2 min to eliminate any directional bias. Each assay comprised 10 replicates and the mean time spent in treated and control arms were compared using a paired t-test (Genstat).
Data were recorded as mean (±SE) time spent in control (solvent only) or treatment arms and were analysed using Students T-test.

For experiment [2], the system named is grain aphid (Sitobion avenae). As to conditions: background statement; cited from earlier work.

With `C=C1/C=C/[C@H](C(C)C)CC/C(C)=C/CC1` [Comparator Compound Ia, (S)-germacrene D], the figures for the “Time spent in control arms (mean of 3)” value in experiment [1] (dose 0.2 μg) and in experiment [1] (dose 2.0 μg) were 2.31 (0.26) min and 2.29 (0.41) min, respectively. For the same compound, the “Time spent in treatment arm” value in experiment [1] (dose 0.2 μg) was 1.14 (0.25) min; in experiment [1] (dose 1.0 μg), 1.63 (0.35) min; in experiment [1] (dose 2.0 μg), 0.50 (0.14) min.
`C=C1C=C[C@H](C(C)CC)CCC(C)=CCC1` (stereo partly drawn) [Comparator Compound Ib, (S)-12-methylgermacrene D]: in experiment [1] (dose 0.9 μg), the “Time spent in control arms (mean of 3)” value is 2.21 (0.42) min and the “Time spent in treatment arm” value is 1.20 (0.24) min. In addition, in experiment [1] (dose 1.2 μg), the “Time spent in control arms (mean of 3)” value is given as 2.66 (0.17) min and the “Time spent in treatment arm” value was 2.13 (0.25) min.
Turning to `C=C1C=C[C@H](C(C)C)CCC(CC)=CCC1` [Comparator Compound Ic, (S)-14-methylgermacrene D], the entries for the “Time spent in control arms (mean of 3)” value in experiment [1] (dose 0.2 μg), in experiment [1] (dose 1.0 μg) and in experiment [1] (dose 2.0 μg) were 2.21 (0.27) min, 2.61 (0.28) min and 2.01 (0.23) min, respectively. Besides, the “Time spent in treatment arm” value in experiment [1] (dose 0.2 μg) is given as 2.41 (0.73) min; in experiment [1] (dose 1.0 μg), 3.27 (0.68) min; in experiment [1] (dose 2.0 μg), 1.65 (0.39) min.
As for `C=C1C=C[C@H](C(C)C)CCC(C)=C(F)CC1` [Comparator Compound Ih, (S)-1-fluorogermacrene D], the “Time spent in control arms (mean of 3)” value is listed as 2.54 (0.27) min in experiment [1] (dose 1.0 μg) and 2.60 (0.26) min in experiment [1] (dose 2.0 μg). In addition, the entries for the “Time spent in treatment arm” value in experiment [1] (dose 1.0 μg) and in experiment [1] (dose 2.0 μg) were 2.62 (0.50) min and 2.46 (0.39) min, respectively.
For `CC=C1C=C[C@H](C(C)C)CCC(C)=CCC1` [Compound If, (S)-15-methylgermacrene D], in experiment [1] (dose 0.8 μg), the “Time spent in control arms (mean of 3)” value is 2.61 (0.26) min and the “Time spent in treatment arm” value is on record as 1.38 (0.38) min. Moreover, in experiment [1] (dose 1.0 μg), the “Time spent in control arms (mean of 3)” value is given as 2.52 (0.23) min and the “Time spent in treatment arm” value is on record as 1.92 (0.31) min. Further, in experiment [1], the “Insect repellent / attractant activity (in words)” value was “much greater insect repellent activity”.
For `CC=C1C=C[C@H](C(C)C)CCC(CC)=CCC1` [Compound Ig, (S)-14,15-dimethylgermacrene D], the “Time spent in control arms (mean of 3)” value in experiment [1] (dose 0.8 μg) was 2.60 (0.22) min; in experiment [1] (dose 1.0 μg), 2.27 (0.11) min and 2.39 (0.20) min; in experiment [1] (dose 1.2 μg), 1.96 (0.21) min. Further, the “Time spent in treatment arm” value is 3.38 (0.38) min in experiment [1] (dose 0.8 μg); 2.77 (0.31) min and 2.97 (0.40) min in experiment [1] (dose 1.0 μg); 2.92 (0.23) min in experiment [1] (dose 1.2 μg). Moreover, the “Insect repellent / attractant activity (in words)” value in experiment [1] is given as “strong insect attractant properties”.
In the case of `C=C1/C=C/[C@H](C(C)C)CC/C(C)=C/CC1` [Germacrene D], in experiment [2], the “Insect repellent activity (in words)” value is given as “repel insects”.
Turning to `C=C1/C=C/[C@@H](C(C)C)CC/C(C)=C/CC1` [III, (R)-germacrene D], in experiment [1] (dose 1.0 μg), the “Time spent in control arms (mean of 3)” value is given as 2.57 (0.19) min and the “Time spent in treatment arm” value is reported as 3.15 (0.53) min. In experiment [1] (dose 2.0 μg), the “Time spent in control arms (mean of 3)” value is given as 1.86 (0.29) min and the “Time spent in treatment arm” value is listed as 2.65 (0.52) min.
Turning to `CC1CCCC(C)CCC(C(C)C)CC1` (stereo not shown) [IV, germacrane], in experiment [1] (dose 1.0 μg), the “Time spent in control arms (mean of 3)” value is listed as 2.45 (0.30) min and the “Time spent in treatment arm” value was 2.04 (0.58) min. For the same compound, in experiment [1] (dose 2.0 μg), the “Time spent in control arms (mean of 3)” value is recorded as 2.39 (0.24) min and the “Time spent in treatment arm” value was 2.38 (0.50) min.
